# Active and inactive are the calls of the source.
# What was measured:
# [1] = target: DNA dC->dU-editing enzyme APOBEC-3A (Homo sapiens, UniProt P31941); assay: A3A deaminase inhibition for selectivity – biochemical, dose response (AID 504722); format: functional
# [2] = target: DNA dC->dU-editing enzyme APOBEC-3G (Homo sapiens, UniProt Q9HC16); assay: Dose Response confirmation of small molecule APOBEC3G DNA Deaminase Inhibitors via a fluorescence-based single-stranded DNA deaminase assay. [Related pubchem assays (depositor defined):AID493012, AID493028]; format: functional
# Cytochrome P450 2D6 = Cytochrome P450 2D6 (Homo sapiens, UniProt P10635);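 further: CYP2D6 member of a cytochrome P450 panel assay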
# Cytochrome P450 3A4 [3] = target: T1, Cytochrome P450 3A4 (Homo sapiens, UniProt P08684);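 further: CYP3A4 tested as one member of a cytochrome P450 panel screen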
# [4] = target: Eukaryotic translation initiation factor 4H (Homo sapiens, UniProt Q15056); assay: inhibitors of translation initiation factor eIF4H – SAR follow-up (AID 435011); format: functional
# [5] = target: Polyadenylate-binding protein 1 (Homo sapiens, UniProt P11940); assay: PABP inhibition in translation initiation, SAR follow-up (AID 435018); format: functional
# Vero [6] = assay: cells; format: functional; conditions: Chlorocebus sabaeus
# BJ [7] = assay: BJ-TERT-LT-ST fibroblast viability loss – cell-based, RAS-independent, luminescence, dose response (AID 1935); format: functional; conditions: Homo sapiens;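 further: BJ fibroblasts immortalized with TERT plus LT and ST oncogenes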
# [8] = DRD fibroblast viability loss – cell-based, non-viral oncogenic, luminescence, dose response (AID 1934); format: functional; conditions: Homo sapiens
# Vero [9] = assay: cells; format: functional, cell-based; conditions: Chlorocebus sabaeus
# BJ [10] = assay: cells; format: functional, cell-based; conditions: Homo sapiens
# BJ [11] = assay: BJ-TERT fibroblast viability loss – cell-based, RAS-independent, luminescence, dose response (AID 1933); format: functional; conditions: Homo sapiens
# [12] = target: T2, E3 ubiquitin-protein ligase XIAP (Homo sapiens, UniProt P98170); assay: Counter Screen using XIAP-Bir3 for Chemical Antagonists of Bir1/2 domains of IAP-family anti-apoptotic proteins. [Related pubchem assays (depositor defined):AID1018, AID1449, AID1514, AID1638, AID1749, AID1750, AID488957, AID488963]
# [13] = target: T2, E3 ubiquitin-protein ligase XIAP; assay: small molecules displacing peptide from XIAP – biochemical, IAP family, fluorescence polarization (AID 1018); format: functional
# [14] = target: T3, Corticotropin-releasing factor receptor 2/Corticotropin-releasing factor-binding protein (Homo sapiens, UniProt P24387+Q13324); assay: activators of CRF receptor 2 with binding protein – uHTS hits, confirmation (AID 602473); format: functional; conditions: read-out: EC50_Mean
# T3 sequence (Q13324 whole entry): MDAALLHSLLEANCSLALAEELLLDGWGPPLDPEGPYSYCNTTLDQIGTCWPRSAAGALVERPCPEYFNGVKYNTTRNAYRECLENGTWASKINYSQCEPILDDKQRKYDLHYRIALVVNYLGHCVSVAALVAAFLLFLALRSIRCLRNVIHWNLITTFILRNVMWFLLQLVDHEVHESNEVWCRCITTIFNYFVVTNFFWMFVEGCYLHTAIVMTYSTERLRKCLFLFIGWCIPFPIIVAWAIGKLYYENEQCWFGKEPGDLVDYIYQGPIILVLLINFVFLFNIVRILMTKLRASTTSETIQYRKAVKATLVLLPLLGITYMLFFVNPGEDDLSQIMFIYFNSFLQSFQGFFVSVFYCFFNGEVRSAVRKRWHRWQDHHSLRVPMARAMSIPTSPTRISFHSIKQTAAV
# T3 sequence (P24387 whole entry): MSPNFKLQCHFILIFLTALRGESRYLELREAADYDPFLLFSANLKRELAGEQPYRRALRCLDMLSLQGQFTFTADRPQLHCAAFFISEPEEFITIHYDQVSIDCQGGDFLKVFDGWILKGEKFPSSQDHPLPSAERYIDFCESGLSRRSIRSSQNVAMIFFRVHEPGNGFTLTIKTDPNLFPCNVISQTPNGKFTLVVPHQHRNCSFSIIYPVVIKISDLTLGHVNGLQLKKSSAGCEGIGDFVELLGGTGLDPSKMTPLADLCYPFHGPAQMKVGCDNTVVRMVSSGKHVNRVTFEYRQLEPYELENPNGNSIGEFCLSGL
# [15] = target: T4, RNA-binding protein pos-1 (Caenorhabditis elegans, UniProt G5EF15); assay: disruptors of C. elegans POS-1 RNA interaction – biochemical, fluorescence polarization, dose response (AID 1964);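 further: purified POS-1 fused to maltose binding protein made in E. coli; potency of compounds blocking POS-1 binding to fluorescent RNA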
# T4 sequence (G5EF15 whole entry): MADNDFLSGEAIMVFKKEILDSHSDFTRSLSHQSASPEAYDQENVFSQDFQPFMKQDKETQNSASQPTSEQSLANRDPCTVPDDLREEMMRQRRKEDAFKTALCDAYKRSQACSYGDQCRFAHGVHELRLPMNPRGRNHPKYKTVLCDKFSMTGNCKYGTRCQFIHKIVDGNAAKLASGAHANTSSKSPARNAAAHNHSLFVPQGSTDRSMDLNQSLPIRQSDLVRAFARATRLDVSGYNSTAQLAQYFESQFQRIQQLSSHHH
# [16] = target: T5, Zinc finger protein mex-5 (Caenorhabditis elegans, UniProt Q9XUB2); assay: potency of MEX-5 RNA-binding blockers – biochemical, C. elegans, fluorescence polarization, dose response (AID 1960)
# T5 sequence (Q9XUB2 whole entry): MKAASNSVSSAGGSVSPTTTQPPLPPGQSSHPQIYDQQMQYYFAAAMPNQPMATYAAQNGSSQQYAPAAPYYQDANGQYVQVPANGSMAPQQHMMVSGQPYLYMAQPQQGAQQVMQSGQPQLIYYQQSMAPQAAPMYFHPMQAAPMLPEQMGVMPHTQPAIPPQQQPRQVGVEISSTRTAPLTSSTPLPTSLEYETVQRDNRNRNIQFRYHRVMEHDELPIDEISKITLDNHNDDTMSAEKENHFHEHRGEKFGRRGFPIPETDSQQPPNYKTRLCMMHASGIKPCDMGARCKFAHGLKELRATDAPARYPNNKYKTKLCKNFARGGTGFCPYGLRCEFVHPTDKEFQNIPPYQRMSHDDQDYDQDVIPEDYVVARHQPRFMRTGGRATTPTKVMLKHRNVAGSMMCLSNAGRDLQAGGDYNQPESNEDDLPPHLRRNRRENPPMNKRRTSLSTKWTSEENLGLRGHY
# HEK293 = assay: EBV LMP1 TES2 canonical NF-kB signalling blockers – cell-based, HEK293, luciferase, cherry-pick, dose response (AID 588343); format: functional; conditions: Homo sapiens
# [17] = viability of uninfected HEp-2 cells – cell-based, HTS, cytotoxicity control for RSV inhibitor project, dose response (AID 2410); format: functional; conditions: human respiratory syncytial virus
# [18] = target: T6, Calpain-2 catalytic subunit (Sus scrofa, UniProt P43367); assay: m-calpain protease blockers, concentration series – biochemical, fluorogenic peptide substrate, dose response (AID 1420); format: functional
# T6 sequence (P43367 whole entry): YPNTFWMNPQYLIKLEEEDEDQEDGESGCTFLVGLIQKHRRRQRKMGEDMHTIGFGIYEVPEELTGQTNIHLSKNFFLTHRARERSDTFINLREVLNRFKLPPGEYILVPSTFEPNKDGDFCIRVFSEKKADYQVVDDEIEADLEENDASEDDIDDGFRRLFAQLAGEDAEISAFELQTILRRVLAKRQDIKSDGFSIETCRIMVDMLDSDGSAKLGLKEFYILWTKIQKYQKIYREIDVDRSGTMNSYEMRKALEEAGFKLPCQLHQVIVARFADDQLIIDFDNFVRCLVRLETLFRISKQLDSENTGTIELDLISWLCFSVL
# [19] = target: T7, Tyrosine-protein phosphatase non-receptor type 7 (Homo sapiens, UniProt P35236); assay: inhibition of hematopoietic tyrosine phosphatase HePTP – biochemical, set 2, SAR follow-up (AID 449736); format: functional
# T7 sequence (P35236 whole entry): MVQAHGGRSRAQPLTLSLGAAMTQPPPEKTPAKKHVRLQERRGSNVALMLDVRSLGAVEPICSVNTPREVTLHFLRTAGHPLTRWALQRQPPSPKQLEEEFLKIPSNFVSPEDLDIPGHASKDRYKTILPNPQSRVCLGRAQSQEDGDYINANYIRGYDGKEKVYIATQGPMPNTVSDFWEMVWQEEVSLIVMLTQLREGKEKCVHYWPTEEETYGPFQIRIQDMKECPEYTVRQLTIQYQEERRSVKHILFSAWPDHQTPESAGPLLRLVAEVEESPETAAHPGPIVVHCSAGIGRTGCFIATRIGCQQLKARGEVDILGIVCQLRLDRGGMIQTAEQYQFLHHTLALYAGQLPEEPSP
# Cytochrome P450 3A4 [20] = target: T1, Cytochrome P450 3A4; remark: listed apart in the source
# Cytochrome P450 2C19 = Cytochrome P450 2C19 (Homo sapiens, UniProt P33261); assay: Cytochrome panel assay with activity outcomes. Panel member name: p450-cyp2c19 Compounds with AC50 equal or less than 10 uM are considered active; format: functional
# Cytochrome P450 1A2 = target: T8, Cytochrome P450 1A2 (Homo sapiens, UniProt P05177);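 further: PubChem cytochrome P450 panel assay, CYP1A2 panel member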
# T8 sequence (P05177 whole entry): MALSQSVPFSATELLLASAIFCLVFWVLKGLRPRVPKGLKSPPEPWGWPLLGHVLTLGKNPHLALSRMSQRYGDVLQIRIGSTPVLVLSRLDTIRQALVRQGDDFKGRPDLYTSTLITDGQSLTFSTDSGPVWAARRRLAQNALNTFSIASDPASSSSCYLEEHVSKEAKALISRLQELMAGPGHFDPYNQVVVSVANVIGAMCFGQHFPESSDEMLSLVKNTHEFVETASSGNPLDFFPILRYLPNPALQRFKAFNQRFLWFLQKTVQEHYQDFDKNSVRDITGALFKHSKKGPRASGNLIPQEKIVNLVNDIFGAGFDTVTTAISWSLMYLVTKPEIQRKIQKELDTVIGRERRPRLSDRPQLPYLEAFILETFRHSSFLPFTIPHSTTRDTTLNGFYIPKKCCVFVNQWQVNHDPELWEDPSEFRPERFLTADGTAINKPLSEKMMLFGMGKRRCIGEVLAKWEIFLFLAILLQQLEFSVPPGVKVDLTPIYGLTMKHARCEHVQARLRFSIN
# Cytochrome P450 2C9 = Cytochrome P450 2C9 (Homo sapiens, UniProt P11712)
# [21] = target: Voltage-dependent T-type calcium channel subunit alpha-1H (Homo sapiens, UniProt O95180); format: functional;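 further: channel activity triggered by adding a high calcium stimulation buffer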
# Polyadenylate-binding protein 1, sequence (P11940 whole entry): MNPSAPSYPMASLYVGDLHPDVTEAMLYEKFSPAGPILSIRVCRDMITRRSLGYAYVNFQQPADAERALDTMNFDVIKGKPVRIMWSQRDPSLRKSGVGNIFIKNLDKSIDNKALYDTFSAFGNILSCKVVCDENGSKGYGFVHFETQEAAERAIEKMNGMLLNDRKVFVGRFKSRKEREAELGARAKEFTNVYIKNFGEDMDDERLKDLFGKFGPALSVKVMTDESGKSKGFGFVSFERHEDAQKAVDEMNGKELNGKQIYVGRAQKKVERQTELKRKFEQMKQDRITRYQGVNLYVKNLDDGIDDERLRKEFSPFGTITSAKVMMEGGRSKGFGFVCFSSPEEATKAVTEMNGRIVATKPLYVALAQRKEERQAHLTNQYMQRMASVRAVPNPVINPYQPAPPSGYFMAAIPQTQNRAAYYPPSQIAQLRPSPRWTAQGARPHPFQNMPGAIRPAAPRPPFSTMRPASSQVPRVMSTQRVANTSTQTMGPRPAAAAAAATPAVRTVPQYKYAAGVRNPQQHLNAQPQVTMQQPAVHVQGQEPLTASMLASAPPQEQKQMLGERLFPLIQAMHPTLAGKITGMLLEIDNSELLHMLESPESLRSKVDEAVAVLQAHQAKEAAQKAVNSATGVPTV
# T2 sequence (P98170 whole entry): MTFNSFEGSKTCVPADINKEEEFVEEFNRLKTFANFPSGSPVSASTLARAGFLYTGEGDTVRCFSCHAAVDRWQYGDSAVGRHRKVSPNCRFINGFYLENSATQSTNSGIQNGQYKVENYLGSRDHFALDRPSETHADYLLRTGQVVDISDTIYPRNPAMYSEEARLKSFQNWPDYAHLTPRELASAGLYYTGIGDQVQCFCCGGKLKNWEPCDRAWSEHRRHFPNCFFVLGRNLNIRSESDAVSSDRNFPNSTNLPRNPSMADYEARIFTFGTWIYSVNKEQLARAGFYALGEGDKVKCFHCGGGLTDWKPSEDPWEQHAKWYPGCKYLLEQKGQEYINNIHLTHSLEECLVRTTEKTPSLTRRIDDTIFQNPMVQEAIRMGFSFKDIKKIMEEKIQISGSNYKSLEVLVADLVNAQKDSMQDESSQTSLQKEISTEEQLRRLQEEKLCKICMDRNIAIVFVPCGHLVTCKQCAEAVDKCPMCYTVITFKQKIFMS
# DNA dC->dU-editing enzyme APOBEC-3G, sequence (Q9HC16 whole entry): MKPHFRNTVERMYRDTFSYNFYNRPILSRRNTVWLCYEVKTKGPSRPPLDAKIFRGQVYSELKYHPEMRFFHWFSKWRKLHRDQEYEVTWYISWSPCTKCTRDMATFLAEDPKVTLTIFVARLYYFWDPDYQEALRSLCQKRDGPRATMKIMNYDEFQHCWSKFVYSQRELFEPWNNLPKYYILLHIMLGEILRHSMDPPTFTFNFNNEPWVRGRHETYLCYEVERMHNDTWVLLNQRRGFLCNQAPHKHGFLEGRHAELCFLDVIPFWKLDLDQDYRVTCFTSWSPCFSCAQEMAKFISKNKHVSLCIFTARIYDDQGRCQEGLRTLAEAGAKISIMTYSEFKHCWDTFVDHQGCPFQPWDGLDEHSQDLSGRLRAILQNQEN
# T1 sequence (P08684 whole entry): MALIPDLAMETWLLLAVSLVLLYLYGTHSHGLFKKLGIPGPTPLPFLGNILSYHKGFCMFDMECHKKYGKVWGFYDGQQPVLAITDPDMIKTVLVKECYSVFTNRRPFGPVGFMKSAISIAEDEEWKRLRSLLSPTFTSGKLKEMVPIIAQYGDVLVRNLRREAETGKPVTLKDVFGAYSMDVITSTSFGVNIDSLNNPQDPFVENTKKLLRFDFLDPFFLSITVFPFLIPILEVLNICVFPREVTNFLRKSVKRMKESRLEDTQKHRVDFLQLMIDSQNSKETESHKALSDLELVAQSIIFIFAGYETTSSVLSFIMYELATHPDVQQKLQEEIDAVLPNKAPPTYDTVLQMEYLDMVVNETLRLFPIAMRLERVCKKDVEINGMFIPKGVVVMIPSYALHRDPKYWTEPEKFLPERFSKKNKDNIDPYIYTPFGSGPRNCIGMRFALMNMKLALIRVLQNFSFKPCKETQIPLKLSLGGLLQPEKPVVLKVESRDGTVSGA
# DNA dC->dU-editing enzyme APOBEC-3A, sequence (P31941 whole entry): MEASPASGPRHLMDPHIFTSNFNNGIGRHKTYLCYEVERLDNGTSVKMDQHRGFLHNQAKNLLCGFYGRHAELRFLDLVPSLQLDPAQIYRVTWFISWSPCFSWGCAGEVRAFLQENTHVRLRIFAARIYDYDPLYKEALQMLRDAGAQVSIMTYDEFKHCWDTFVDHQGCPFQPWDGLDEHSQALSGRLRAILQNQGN
# Cytochrome P450 2D6, sequence (P10635 whole entry): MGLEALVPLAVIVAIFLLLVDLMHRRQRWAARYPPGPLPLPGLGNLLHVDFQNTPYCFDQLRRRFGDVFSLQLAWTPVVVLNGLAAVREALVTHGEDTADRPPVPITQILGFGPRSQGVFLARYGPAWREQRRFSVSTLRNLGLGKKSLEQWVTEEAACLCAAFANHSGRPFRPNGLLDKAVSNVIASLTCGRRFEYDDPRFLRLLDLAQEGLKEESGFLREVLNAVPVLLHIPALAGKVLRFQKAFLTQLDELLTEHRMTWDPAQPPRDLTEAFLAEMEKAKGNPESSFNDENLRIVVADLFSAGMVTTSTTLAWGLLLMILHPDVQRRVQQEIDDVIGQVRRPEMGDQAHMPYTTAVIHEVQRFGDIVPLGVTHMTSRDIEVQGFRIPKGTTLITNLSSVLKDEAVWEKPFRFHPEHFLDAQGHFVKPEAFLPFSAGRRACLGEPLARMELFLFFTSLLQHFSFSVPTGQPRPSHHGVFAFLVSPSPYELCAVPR
# Cytochrome P450 2C9, sequence (P11712 whole entry): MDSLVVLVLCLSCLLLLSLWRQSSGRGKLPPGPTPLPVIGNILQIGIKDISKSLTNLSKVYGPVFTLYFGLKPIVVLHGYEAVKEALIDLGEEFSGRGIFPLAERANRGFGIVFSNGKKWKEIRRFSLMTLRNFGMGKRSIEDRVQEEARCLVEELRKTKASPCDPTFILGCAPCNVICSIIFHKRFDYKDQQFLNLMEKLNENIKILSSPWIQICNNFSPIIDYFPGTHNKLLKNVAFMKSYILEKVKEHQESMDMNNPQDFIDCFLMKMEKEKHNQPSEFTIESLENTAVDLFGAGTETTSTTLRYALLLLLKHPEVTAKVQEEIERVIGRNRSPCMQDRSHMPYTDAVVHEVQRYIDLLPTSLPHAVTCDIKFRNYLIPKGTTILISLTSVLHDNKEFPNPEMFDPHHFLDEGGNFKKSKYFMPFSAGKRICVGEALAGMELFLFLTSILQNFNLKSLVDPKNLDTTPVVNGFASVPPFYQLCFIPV
# Cytochrome P450 2C19, sequence (P33261 whole entry): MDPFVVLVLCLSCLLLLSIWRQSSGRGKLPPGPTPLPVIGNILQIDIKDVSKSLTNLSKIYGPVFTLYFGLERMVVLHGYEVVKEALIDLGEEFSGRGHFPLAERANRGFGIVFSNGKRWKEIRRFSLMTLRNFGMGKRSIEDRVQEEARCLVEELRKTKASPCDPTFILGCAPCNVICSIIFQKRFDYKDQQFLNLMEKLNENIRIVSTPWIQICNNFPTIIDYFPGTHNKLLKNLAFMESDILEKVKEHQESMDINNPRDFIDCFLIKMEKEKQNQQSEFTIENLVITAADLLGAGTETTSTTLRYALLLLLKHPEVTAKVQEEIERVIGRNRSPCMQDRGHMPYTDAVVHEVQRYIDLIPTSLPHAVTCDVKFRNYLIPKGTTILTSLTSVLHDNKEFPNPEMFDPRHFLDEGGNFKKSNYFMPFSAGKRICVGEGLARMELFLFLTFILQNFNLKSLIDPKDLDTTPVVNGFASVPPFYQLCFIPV
compound,measurement,setting,value
CCCCn1c(S)nnc1-c1ccc([N+](=O)[O-])cc1,IC50,[1],> 100 µM (inactive)
same,IC50,[2],3.5 µM (active)
Cn1c(=O)n(C)c2cc([N+](=O)[O-])c(N3CCN(C(=O)c4ccccc4Cl)CC3)cc21,AC50,Cytochrome P450 2D6,35.5 nM (inconclusive)
same,AC50,Cytochrome P450 3A4 [3],inconclusive
O=C(COc1ccc(C=NNC(=O)c2ccccc2O)cc1)Nc1ccccc1,IC50,[4],> 100 µM (inactive)
same,IC50,[5],> 100 µM (inactive)
Cc1ccc(N(Cc2cc(O)nc3ccccc23)C(=O)CCl)cc1,CC50,Vero [6],6.57 µM (active)
same,EC50,BJ [7],8.14 µM (inconclusive)
same,EC50,[8],4.97 µM (inconclusive)
same,IC50,Vero [9],> 25 µM (active)
same,EC50,BJ [10],8.7 µM (active)
same,EC50,BJ [11],1.19 µM (inconclusive)
CCn1c(CCNC(=O)c2ccc(OC)cc2)nnc1SCc1ccc(Cl)c(Cl)c1,IC50,[12],> 100 µM (inactive)
same,IC50,[13],> 100 µM (not active)
same,EC50,[14],> 53 µM (inactive)
C=CCn1c(S)nnc1-c1sc2nc(C)cc(C)c2c1N,IC50,[1],> 100 µM (inactive)
same,IC50,[2],3.28 µM (active)
CC(C)(C)c1ccc(C(=O)Nc2cccc3ncccc23)cc1,EC50,[15],8.65 µM (active)
same,IC50,[4],1.14 µM (active)
same,EC50,[16],5.39 µM (active)
same,IC50,[5],1.32 µM (active)
Clc1ccc(COn2c(-c3ccccc3)nc3ccccc32)cc1,AC50,Cytochrome P450 3A4 [3],inconclusive
C#CCn1c(S(=O)(=O)Cc2ccc(F)cc2)nc(-c2ccccc2)c1-c1ccccc1,AC50,HEK293,21.7 µM (active)
same,CC50,[17],3.47 µM (active)
same,IC50,cells,4.97 µM (active)
same,CC50,Vero [6],22.2 µM (active)
same,IC50,Vero [9],3.94 µM (active)
OCC1(CCc2ccccc2)CCN(Cc2ccc(OC(F)F)cc2)CC1,IC50,[12],> 100 µM (inactive)
same,IC50,[13],> 100 µM (not active)
CCCCSc1nnc2c(n1)OC(C(=O)c1ccccc1)Nc1ccccc1-2 (configuration not stated),IC50,[12],> 100 µM (inactive)
same,IC50,[18],> 50 µM (not active)
same,IC50,[13],> 50 µM (not active)
Nc1c(C(=O)N2CCOCC2)sc(=S)n1-c1ccc(F)c(Cl)c1,IC50,[19],> 100 µM (inactive)
COc1ccccc1N=C1SC(C(=O)Nc2ccccc2)CC(=O)N1C (configuration not stated),IC50,[4],> 100 µM (inactive)
same,IC50,[5],> 100 µM (inactive)
CCOC(=O)N/N=C/c1ccc(Oc2ccccc2)cc1,IC50,[12],> 100 µM (inactive)
same,IC50,[13],> 100 µM (not active)
Cc1nnc(S)n1/N=C/c1ccc(Br)o1,IC50,[1],> 100 µM (inactive)
same,IC50,[2],6.93 µM (active)
same,AC50,Cytochrome P450 3A4 [20],25.1 µM (inconclusive)
same,AC50,Cytochrome P450 2C19,inconclusive
Sc1nc(-c2ccccc2)cn1/N=C/c1ccncc1,IC50,[1],> 100 µM (inactive)
same,IC50,[2],2.93 µM (active)
O=c1[nH]c2ccccc2n1CCCN1CCN(C(c2ccccc2)c2ccccc2)CC1 [OXATOMIDE],AC50,Cytochrome P450 3A4 [3],inconclusive
same,AC50,Cytochrome P450 1A2,25.1 µM (inconclusive)
same,AC50,Cytochrome P450 2C9,7.94 µM (inconclusive)
same,EC50,[21],5.15 µM (active)
